Reference: patent US10316020B2, “Indane derivatives and the use thereof as soluble guanylate cyclase activators” (NOVARTIS AG, priority 2015, dated 2019)

Target: T1, soluble guanylate cyclase (GUCYA3/GUCYB3) overexpressed in CHO cells (Homo sapiens, UniProt Q02108+Q02153)
T1 construct: expressed in transfected cells
T1 sequence (Q02108 1-690 partner): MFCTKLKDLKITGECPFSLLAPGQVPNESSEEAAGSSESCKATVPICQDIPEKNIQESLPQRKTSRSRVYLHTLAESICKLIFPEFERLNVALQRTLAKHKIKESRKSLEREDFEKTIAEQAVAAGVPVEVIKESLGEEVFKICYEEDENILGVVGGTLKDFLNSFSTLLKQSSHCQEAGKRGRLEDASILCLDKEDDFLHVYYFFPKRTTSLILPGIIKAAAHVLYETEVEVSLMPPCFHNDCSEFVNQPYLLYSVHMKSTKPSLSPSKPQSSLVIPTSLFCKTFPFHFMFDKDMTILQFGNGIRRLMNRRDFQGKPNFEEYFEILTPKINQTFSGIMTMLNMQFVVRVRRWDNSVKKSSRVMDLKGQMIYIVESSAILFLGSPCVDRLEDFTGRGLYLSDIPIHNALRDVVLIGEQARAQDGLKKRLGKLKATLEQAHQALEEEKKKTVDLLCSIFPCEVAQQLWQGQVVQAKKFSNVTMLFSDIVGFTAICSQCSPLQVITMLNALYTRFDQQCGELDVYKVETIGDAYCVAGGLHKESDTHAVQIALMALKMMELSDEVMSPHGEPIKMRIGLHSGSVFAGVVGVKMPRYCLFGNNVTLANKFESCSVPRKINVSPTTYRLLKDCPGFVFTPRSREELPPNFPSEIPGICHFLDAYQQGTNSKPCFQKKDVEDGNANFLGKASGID
T1 sequence (Q02153 1-619): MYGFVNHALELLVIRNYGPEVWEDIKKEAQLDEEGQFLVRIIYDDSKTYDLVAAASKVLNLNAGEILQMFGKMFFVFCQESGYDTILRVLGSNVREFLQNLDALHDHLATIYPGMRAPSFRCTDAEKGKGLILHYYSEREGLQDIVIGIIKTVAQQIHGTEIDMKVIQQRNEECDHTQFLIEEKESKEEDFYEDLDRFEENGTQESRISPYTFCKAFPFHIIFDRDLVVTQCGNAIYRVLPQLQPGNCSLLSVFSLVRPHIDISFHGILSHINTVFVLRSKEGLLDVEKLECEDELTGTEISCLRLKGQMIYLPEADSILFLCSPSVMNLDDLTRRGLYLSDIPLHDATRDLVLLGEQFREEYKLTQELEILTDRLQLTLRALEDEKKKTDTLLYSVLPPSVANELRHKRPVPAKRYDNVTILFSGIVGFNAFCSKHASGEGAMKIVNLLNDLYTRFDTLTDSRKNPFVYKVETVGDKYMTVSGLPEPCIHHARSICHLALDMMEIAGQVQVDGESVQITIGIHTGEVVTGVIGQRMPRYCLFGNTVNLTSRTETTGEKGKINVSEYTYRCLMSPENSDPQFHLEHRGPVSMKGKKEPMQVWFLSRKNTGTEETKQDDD
Assay: CHO cellular assay (cGMP production, HTRF)
Assay type: cell-based
Details: CHO GUCY clone 8E10; assay buffer with 1 mM IBMX, 20 uM ODQ; 1 h at room temperature; cGMP HTRF; quantification limit 0.0005 μM; read-out: Mean EC50
Description: Chinese hamster ovary (CHO) cells overexpressing soluble guanylate cyclase were generated to test the effect of sGC activators in a cellular context. Human cDNAs for GUCYA3 (RefSeq: NM_000856.3) and GUCYB3 (RefSeq: NM_000857.1) were amplified by PCR from a HUVEC (Human Umbilical Vein Endothelial Cells) cDNA library and cloned into mammalian expression vectors. CHO K1 cells (ATCC CCL-61) were transfected using Lipofectamine 2000 following manufacturer's instructions and stably expressing clones were identified by antibiotic selection. CHO GUCY clone 8E10 was used for subsequent experiments.
Cells were seeded at a density of 3000 cells/well in white 384-well proxyplates (Perkin Elmer) and incubated overnight, then the medium was removed and cells were washed with assay buffer (HBSS, 0.1% BSA, 1 mM IBMX, 20 uM ODQ). sGC activators were serially diluted in DMSO, then diluted in assay buffer prior to adding to cells (10 ul/well, final DMSO concentration 0.5%). Cells were incubated with compounds for 1 h at room temperature, then assayed for cGMP production using Cisbio cGMP HTRF kit (62GM2PEC) according to manufacturer's instructions.
The EC50s are calculated based on the amount of cGMP interpolated from the standard curve, using a 4-parameter sigmoidal dose-response.
Compounds of invention are active on sGC activation. Data in Table 1 collected using the assay of Biological Example 1.

Question: With CCc1nc(NC2CCc3cccc(-c4cccc(-n5ncc(C(=O)O)c5OC)n4)c32)ccc1C1=CCN(C(=O)C2CC2)CC1 (single isomer, unassigned; (-)) [Example 16B, (−)-1-(6-(3-((1′-(Cyclopropanecarbonyl)-2-ethyl-1′,2′,3′,6′-tetrahydro-[3,4′-bipyridin]-6-yl)amino)-2,3-dihydro-1H-inden-4-yl)pyridin-2-yl)-5-methoxy-1H-pyrazole-4-carboxylic acid] as the compound, how does the EC50 read?
Answer: 279 nM

Question: For CCc1cc(NC2CCc3cccc(-c4cccc(-n5ncc(C(=O)O)c5N)n4)c32)ccc1C1CCN(C(=O)C2CC2)CC1 (single isomer, unassigned; (-)) [Example 18B, (−)-5-Amino-1-(6-(3-((4-(1-(cyclopropanecarbonyl)piperidin-4-yl)-3-ethylphenyl)amino)-2,3-dihydro-1H-inden-4-yl)pyridin-2-yl)-1H-pyrazole-4-carboxylic acid], which EC50 is on record?
Answer: 31 nM

Question: CCc1nc(NC2CCc3cccc(-c4cccc(-n5ncc(C(=O)O)c5NC)c4)c32)ccc1C1=CCN(C(=O)C2CC2)CC1 (single isomer, unassigned; (-)) [Example 22B, (−)-1-(3-(3-((1′-(Cyclopropanecarbonyl)-2-ethyl-1′,2′,3′,6′-tetrahydro-[3,4′-bipyridin]-6-yl)amino)-2,3-dihydro-1H-inden-4-yl)phenyl)-5-(methylamino)-1H-pyrazole-4-carboxylic acid] was tested. Which EC50 did it give?
Answer: 40.4 nM

Question: Which EC50 does the source give for CCc1cc(NC2CCc3cccc(-c4cccc(-n5ncc(C(=O)O)c5NC)c4)c32)ccc1C1CCN(C(=O)C2CC2)CC1 (single isomer, unassigned; enantiomer-1) [Example 12A, (enantiomer-1)-1-(3-(3-((4-(1-(Cyclopropanecarbonyl)piperidin-4-yl)-3-ethylphenyl)amino)-2,3-dihydro-1H-inden-4-yl)phenyl)-5-(methylamino)-1H-pyrazole-4-carboxylic acid] here?
Answer: 53 nM

Question: For CCc1cc(NC2CCc3cccc(-c4cccc(-n5ncc(C(=O)O)c5NC)c4)c32)ccc1C1CCN(C(=O)C2CC2)CC1 (single isomer, unassigned; enantiomer-2) [Example 12B, (enantiomer-2)-1-(3-(3-((4-(1-(Cyclopropanecarbonyl)piperidin-4-yl)-3-ethylphenyl)amino)-2,3-dihydro-1H-inden-4-yl)phenyl)-5-(methylamino)-1H-pyrazole-4-carboxylic acid], which EC50 is on record?
Answer: < 0.5 nM

Question: With CCc1cc(C[C@@H]2CCc3cccc(-c4cccc(-n5ncc(C(=O)O)c5OC)c4)c32)ccc1C1CCN(C(=O)C2CC2)CC1 [Example 1B, (−)-(S)-1-(3-(3-(4-(1-(Cyclopropanecarbonyl)piperidin-4-yl)-3-ethylbenzyl)-2,3-dihydro-1H-inden-4-yl)phenyl)-5-methoxy-1H-pyrazole-4-carboxylic acid] as the compound, how does the EC50 read?
Answer: 16 nM

Question: With CCc1cc(C[C@H]2CCc3cccc(-c4cccc(-n5ncc(C(=O)O)c5OC)c4)c32)ccc1C1CCN(C(=O)[C@H](C)O)CC1 [Example 2A, (+)-1-(3-((R)-3-(3-Ethyl-4-(1-((S)-2-hydroxypropanoyl)piperidin-4-yl)benzyl)-2,3-dihydro-1H-inden-4-yl)phenyl)-5-methoxy-1H-pyrazole-4-carboxylic acid] as the compound, how does the EC50 read?
Answer: < 0.5 nM

Question: For CCc1cc(C[C@@H]2CCc3cccc(-c4cccc(-n5ncc(C(=O)O)c5OC)c4)c32)ccc1C1CCN(C(=O)[C@H](C)O)CC1 [Example 2B, (−)-1-(3-((S)-3-(3-Ethyl-4-(1-((S)-2-hydroxypropanoyl)piperidin-4-yl)benzyl)-2,3-dihydro-1H-inden-4-yl)phenyl)-5-methoxy-1H-pyrazole-4-carboxylic acid], which EC50 is on record?
Answer: 34 nM

Question: For CCc1cc(N[C@@H]2CCc3cccc(-c4cccc(-n5ncc(C(=O)O)c5OC)c4)c32)ccc1C1CCN(C(=O)C2CC2)CC1 [Example 3B, (−)-(R)-1-(3-(3-((4-(1-(Cyclopropanecarbonyl)piperidin-4-yl)-3-ethylphenyl)amino)-2,3-dihydro-1H-inden-4-yl)phenyl)-5-methoxy-1H-pyrazole-4-carboxylic acid], which EC50 is on record?
Answer: 29 nM

Question: CCc1cc(O[C@H]2CCc3cccc(-c4cccc(-n5ncc(C(=O)O)c5OC)c4)c32)ccc1C1CCN(C(=O)[C@H](C)O)CC1 [Example 6, 1-(3-((S)-3-(3-Ethyl-4-(1-((S)-2-hydroxypropanoyl)piperidin-4-yl)phenoxy)-2,3-dihydro-1H-inden-4-yl)phenyl)-5-methoxy-1H-pyrazole-4-carboxylic acid] was tested. Which EC50 did it give?
Answer: < 0.5 nM

Question: Which EC50 does the source give for CCc1cc(C[C@H]2CCc3cccc(-c4cccc(-n5ncc(C(=O)O)c5OC)n4)c32)ccc1C1CCN(C(=O)C2CC2)CC1 [Example 13, (+)-(R)-1-(6-(3-(4-(1-(Cyclopropanecarbonyl)piperidin-4-yl)-3-ethylbenzyl)-2,3-dihydro-1H-inden-4-yl)pyridin-2-yl)-5-methoxy-1H-pyrazole-4-carboxylic acid] here?
Answer: < 0.5 nM

Question: For CCc1cc(O[C@H]2CCc3cccc(-c4cccc(-n5ncc(C(=O)O)c5OC)n4)c32)ccc1C1CCN(C(=O)C2CC2)CC1 [Example 14, (S)-1-(6-(3-(4-(1-(Cyclopropanecarbonyl)piperidin-4-yl)-3-ethylphenoxy)-2,3-dihydro-1H-inden-4-yl)pyridin-2-yl)-5-methoxy-1H-pyrazole-4-carboxylic acid], which EC50 is on record?
Answer: < 0.5 nM

Question: With CCc1cc(O[C@H]2CCc3cccc(-c4cccc(-n5ncc(C(=O)O)c5OC)n4)c32)ccc1C1CCN(C(=O)[C@H](C)O)CC1 [Example 15, 1-(6-((S)-3-(3-Ethyl-4-(1-((S)-2-hydroxypropanoyl)piperidin-4-yl)phenoxy)-2,3-dihydro-1H-inden-4-yl)pyridin-2-yl)-5-methoxy-1H-pyrazole-4-carboxylic acid] as the compound, how does the EC50 read?
Answer: 1 nM

Question: For CCc1cc(O[C@H]2CCc3cccc(-c4cccc(-n5ncc(C(=O)O)c5N)n4)c32)ccc1C1CCN(C(=O)C2CC2)CC1 [Example 19, (S)-5-Amino-1-(6-(3-(4-(1-(cyclopropanecarbonyl)piperidin-4-yl)-3-ethylphenoxy)-2,3-dihydro-1H-inden-4-yl)pyridin-2-yl)-1H-pyrazole-4-carboxylic acid], which EC50 is on record?
Answer: 3 nM

Question: Which EC50 does the source give for CCc1cc(C[C@H]2CCc3cccc(-c4cccc(-n5ncc(C(=O)O)c5N)c4)c32)ccc1C1CCN(C(=O)C2CC2)CC1 [Example 20, (+)-(R)-5-Amino-1-(3-(3-(4-(1-(cyclopropanecarbonyl)piperidin-4-yl)-3-ethylbenzyl)-2,3-dihydro-1H-inden-4-yl)phenyl)-1H-pyrazole-4-carboxylic acid] here?
Answer: < 0.5 nM

Question: CCc1cc(C[C@H]2CCc3cccc(-c4cccc(-n5ncc(C(=O)O)c5NC)c4)c32)ccc1C1CCN(C(=O)C2CC2)CC1 [Example 21, (R)-1-(3-(3-(4-(1-(cyclopropanecarbonyl)piperidin-4-yl)-3-ethylbenzyl)-2,3-dihydro-1H-inden-4-yl)phenyl)-5-(methylamino)-1H-pyrazole-4-carboxylic acid] was tested. Which EC50 did it give?
Answer: < 0.5 nM

Question: With CCc1cc(C[C@H]2CCc3cccc(-c4cccc(-n5ncc(C(=O)O)c5N)n4)c32)ccc1C1CCN(C(=O)C2CC2)CC1 [Example 23, (R)-5-Amino-1-(6-(3-(4-(1-(cyclopropanecarbonyl)piperidin-4-yl)-3-ethylbenzyl)-2,3-dihydro-1H-inden-4-yl)pyridin-2-yl)-1H-pyrazole-4-carboxylic acid] as the compound, how does the EC50 read?
Answer: < 0.5 nM
